Experimental data as given in patent US20090042993A1, “IDENTIFICATION OF NOVEL POST-TRANSLATIONAL PROTEIN MODIFICATIONS” (priority 2007, published 2009).

Experiments:
BACE1 [1] = test: Pulse-chase half-life of BACE1; format: cell-based, human; conditions: following ceramide treatment; ~16 hours without
Method: Confluent cells were starved for 1 hr in Met/Cys free medium, labeled with 100 μCi [^35S]-Met/Cys (Trans35S-Label, >1000 Ci/mmol; Pierce) in starvation medium/dish and chased for 8, 16, and 24 hours with DMEM supplemented with 5 mM cold Met/Cys. Cell extracts were pre-cleared with BioMag Protein A (Polysciences, Inc.). Beads were used at the concentration of 15 μl of the slurry per sample and separated with a magnetic holder. BACE1 was then immunoprecipitated with anti-BACE1 antibodies and recovered with BioMag Protein A as above. The immunoprecipitate-bead complexes were washed 3 times and boiled in sample buffer. Beads were then separated and the samples were analyzed by reducing SDS-PAGE (on a 4-12% Bis-Tris NuPAGE system) and autoradiography.
FIG. 3 illustrates how transient lysine acetylation controls both translocation along the secretory pathway and molecular stability of the nascent BACE1 protein. […] Immunoprecipitates were analyzed by SDS-PAGE and autoradiography. […] BACE1 was then immunoprecipitated as above and analyzed by reducing SDS-PAGE and autoradiography. Results are expressed as percentage of total newly-synthesized BACE1. […] BACE1 was immunoprecipitated from total cell lysates and analyzed by SDS-PAGE and autoradiography. The half-life of BACE1 from five different readings is shown in FIG. 3(C), whereas a representative radiogram is shown in FIG. 3(D). […]

BACE1 [2] = test: BACE1 lysine acetylation (immunoprecipitation, anti-acetylated lysine blot, LC-MS/MS mapping) in CHO cells; format: cell-based, human
Method: Chinese Hamster Ovary (CHO) cells were grown in DMEM (Gibco BRL—Invitrogen, Carlsbad, Calif.) supplemented with 10% fetal bovine serum (FBS) and penicillin/streptomycin (Mediatech, Inc., Herndon, Va.) as described before (Puglielli et al., 2001, Nat. Cell Biol. 3: 905-912; Puglielli et al., 2003, J. Biol. Chem. 278: 19777-19783; Costantini et al., 2005, Biochem. J. 391: 59-67; Costantini et al., 2006, EMBO J. 25: 1997-2006). Cells were maintained in a humidified atmosphere with 5% CO2. For ceramide treatment, C6-ceramide (also simply called ceramide herein) was administered at the final concentration of 10 μM; treatment was started when cells were ˜30% confluent and carried out for 4 days, unless specified otherwise. Treatment with proteasome inhibitors MG-132 (5 μM) and lactacystin (10 μM) was done for 10 hours, as described earlier (Qing et al., 2004, FASEB J. 18: 1571-1573).
For the immunoprecipitation of BACE1, cell lysates were pre-cleared with BioMag Protein A (Polysciences, Inc., Warrington, Pa.); beads were used at the concentration of 15 μl of the slurry per sample and separated with a magnetic holder. BACE1 was then immunoprecipitated with anti-BACE1 antibodies overnight and recovered with BioMag Protein A as above. The immunoprecipitate-bead complexes were washed 3 times in PBS and boiled for 10 min in SDS sample buffer (Invitrogen) with β-mercaptoethanol. Beads were then separated and the samples were analyzed by reducing SDS-PAGE.
BACE1-myc was purified via affinity chromatography on a ProFound c-Myc-Tag IP/Co-IP kit (Pierce). Each BACE1 preparation was then precipitated by addition of 4 volumes of acetone, pelletted by centrifugation, washed, and vacuum-dried. […]
A portion of each purified digest, corresponding to 10 μg of pre-digested protein, was analyzed by μLC-MS/MS using a Micromass Q-TOF2 spectrometer to locate acetylation sites. […] Charge dependent collision energy profiles were empirically pre-determined. […]

## CCCCCCCCCCCCC/C=C/[C@@H](O)[C@H](CO)NC(=O)CCCCC [ceramide, C6-ceramide]
BACE1 [1]
  half-life of native BACE1: ~24 h
BACE1 [2]; CHO cells stably expressing BACE1Ala grown with ceramide
  acetylation of BACE1Ala in vivo: did not induce acetylation
BACE1 [2]; MS/MS of tryptic digests, two residues acetylated prior to ceramide treatment
  number of acetylated lysine residues of BACE1: increased to seven
BACE1 [2]; ceramide treatment of cells
  BACE1 acetylation: stimulates BACE1 acetylation
